US6166036A, “Lp(a)-lowering agent and apolipoprotein (a) formation suppressing agent” (Taiho Pharmaceutical Co., Ltd., priority 1998, dated 2000)

How the values were obtained:
[1] = system: Lp(a); assay: A test on lowering of the Lp(a) level in crab-eating monkeys; type: in vivo, crab-eating monkey; settings: oral 30 mg/kg, three weeks; for Changing ratio (%) of Lp(a): male, 5 per group, Lp(a) level in blood, average value; for effect on Lp(a) level (in words): conclusion from Table 6
Description: Crab-eating monkeys (male, 2.4 to 3.9 kg in weight) were reared in groups, each group consisting of 5 monkeys. Compound 4 was suspended in a 0.5%, HPMC (hydroxypropylmethyl cellulose) solution in an amount of 30 mg/5 mL, whereby the test compound was prepared. To the specimen-administered group, the test compound was orally administered at a dose of 30 mg/kg. At the starting time of administration and three weeks after administration, the Lp(a) level in the blood of the tested animals was measured. For the measurement, a kit ("Immunosearch Lp(a) TIA") commercially available from Cosmo Bio Co., Ltd. was employed. Namely, according to the procedure as indicated in the kit, the measurement was carried out by adding 256 μl of a phosphate buffer to 7 μl of the serum and then adding the goat anti-human Lp(a) serum to the resulting mixture. For the measurement, a biochemical automatic analyzer ("Hitachi 7170"; product of Hitachi Ltd.) was employed. As a comparative compound, pravastatin and bezafibrate were treated similarly and provided for the test. From the measuring results, a changing ratio (%) of the Lp(a) level at the starting time of administration relative to that three weeks after the administration was determined with regards to each of the monkeys and the average value was expressed as an Lp(a) lowering ratio.

[2] = system: apo(a) gene; assay: Test on suppression of apo(a) gene expression (luciferase assay in HepG2 cells); type: cell-based, human; settings: final concentration of 2 μM, 48 hours; for inhibition at 2 µM: Homo sapiens, relative to DMSO control group, read-out: Expression ratio (%) of apo(a) gene; for effect on expression of apo(a) gene (in words): conclusion from Table 5
Description: This test was carried out in accordance with the method described in "BIOCHEMICAL AND BIOPHYSICAL RESEARCH COMMUNICATIONS 227, 570-575[…] ARTICLE No. 1547". Described specifically, 2 μg/mL of an apo(a) gene (1441 base pairs) separated from the blood of normal volunteers was introduced into HepG2 cells (2×10^5 cells/mL), followed by culturing for 16 hours. Compound 4 was dissolved in DMSO (dimethylsulfoxide) to give a final concentration of 2 μM, to which the cultured cells were added. After culturing for further 48 hours, the expression of an apo(a) gene was measured regarding it as luciferases reaction and therefore, using luciferases assay system (Picagene) of Toyo Ink Mfg. Co., Ltd. for the analysis of gene expression. Namely, the cultured HepG2 cells were dissolved in a liquid to dissolve them therein. The resulting solution was centrifuged to obtain a supernatant. To 200 μl of the resulting supernatant was added 100 μl of a […] substrate, followed by mixing for 15 seconds. The luminescence was measured by a chemo-bioluminescence measuring device (Luminoscan RS) of Dainippon Pharmaceutical Co., Ltd. and expression ratio of an apo(a) gene was determined. The expression ratio of an apo(a) gene was calculated from the ratio to the luminescence of a group (control group) to which the same amount of DMSO had been added. As comparative compounds, pravastatin (HMG-COA reductase inhibitor, sterol synthesis inhibitor) and bezafibrate (fibrate series medicament, antihyperlipoproteinemic) were treated in a similar manner and provided for the test.

[3] = system: beagles; assay: Acute toxicity test in beagles; type: in vivo, beagle dog; settings: 7-month old male beagles, 2 per group, fasted 16 hours; oral 2000 mg/kg in 0.5% HPMC
Description: After 7-month old beagles (male, each group consisting of 2 beagles) were fasted for 16 hours, Compound 4 suspended in a 0.5%, HPMC solution was orally administered at a dose of 2000 mg/kg.

SMILES | Changing ratio (%) of Lp(a) [1] | effect on Lp(a) level (in words) [1] | inhibition at 2 µM [2] [%] | effect on expression of apo(a) gene (in words) [2] | death cases [3] | serious side effects [3]
CC[C@H](C)C(=O)O[C@H]1C[C@H](O)C=C2C=C[C@H](C)[C@H](CC[C@@H](O)C[C@@H](O)CC(=O)O)[C@H]21 [Pravastatin, pravastatin] | +35% | increased the Lp(a) level | -27 | reinforced the expression of the apo(a) gene | – | –
CC(C)(C)c1ccc(N2C[C@@H](COc3ccc(C(=O)O)cc3)CC2=O)cc1 [Compound 4, (S)-(+)-4-[1-(4-tert-butylphenyl)-2-pyrrolidon-4-yl]methoxybenzoic acid] | -33% | exhibited excellent Lp(a) lowering effects | 24 | exhibited excellent effects for suppressing the expression of an apo(a) gene | neither death case | nor serious side effects were recognized
CC(C)(Oc1ccc(CCNC(=O)c2ccc(Cl)cc2)cc1)C(=O)O [Bezafibrate, bezafibrate] | +8% | increased the Lp(a) level | -3 | reinforced the expression of the apo(a) gene | – | –
